Tested on: Beagle dogs
Assay: Subchronic toxicity test in Beagle dogs: serum biochemistry
Assay type: in vivo
Procedure: HZ1006 was administered orally to dogs (four/sex/group) at doses of 80, 40, 20, 5 and 0 (control) mg/kg/day, and the dosage volume was 2 mL/kg. The dogs received test doses with the exact amounts on a weekly basis based on current body weights. […] The other dogs in the above groups were dissected on the planned days. For the other groups, half of the dogs were anatomized on d28 and the remaining half on d42.
The following indexes were examined for the dogs used in the study, twice during the pre-dosage period and on d14, d28 and d42. The following parameters were evaluated on d28 and d42 for the rats in the study:
The animal blood samples were collected in the tubes containing the coagulator and centrifuged at 500 g for 10 min; the supernatant was then collected into a new tube. The serum biochemistry indexes included the following: alanine aminotransferase (ALT), alkaline phosphatase (ALP), aspartate aminotransferase (AST), blood urea (BU), lactate dehydrogenase (LDH), total bilirubin (TBIL), creatinine (Crea), albumin (ALB), total protein (TP), triglycerides (TG), total cholesterol (TCH), γ-glutamyltranspeptidase (g-GT), glucose (GLU), creatine phosphokinase (CPK), uric acid (UA), phosphorus (P), and calcium (Ca^2+). The above parameters were analyzed using an Automatic Analyzer 7080 provided by Hitachi High-Technologies Corp. (Tokyo, Japan). An Na/K/Cl Analyzer EasyLyte PLUS from Medica Corp. (Bedford, MA, USA), was used to determine the levels of chloride (Cl^−), sodium (Na^+) and potassium (K^+) in the blood samples.

[1] = dog ♀6 (80 mg/kg/day oral), d0 (pre-dose)
[2] = dog ♀6 (80 mg/kg/day oral), d14 line (moribund, euthanized d8)
[3] = dog ♀28 (40 mg/kg/day oral), d0 (pre-dose)
[4] = dog ♀28 (40 mg/kg/day oral), d14 (died d16)
[5] = dogs, 5 mg/kg/day oral, d0 (pre-dose)
[6] = dogs, 5 mg/kg/day oral, d42 (recovery)
[7] = dogs, 20 mg/kg/day oral, d0 (pre-dose)

## CCCCCCCNc1cc(/C=C/C(=O)NO)ccc1OCCN(CC)CC [HZ1006]
[1]
  ALP: Alkaline phosphatase: 1.50 µmol/s/L
  ALT: Alanine aminotransferase: 487 nmol/s/L
  AST: Aspartate aminotransferase: 456 nmol/s/L
  BU: Blood urea: 4.04 mmol/L
  CPK: Creatine phosphokinase: 3.06 µmol/s/L
  CREA: Creatinine: 52.8 µmol/L
  LDH: Lactate dehydrogenase: 2.78 µmol/s/L
  TBIL: Total bilirubin: 2.95 µmol/L
  TCH: Total cholesterol: 3.27 mmol/L
[2]
  ALP: Alkaline phosphatase: 3.86 µmol/s/L
  ALT: Alanine aminotransferase: 466 nmol/s/L
  AST: Aspartate aminotransferase: 1907 nmol/s/L
  BU: Blood urea: 15.20 mmol/L
  CPK: Creatine phosphokinase: 57.57 µmol/s/L
  CREA: Creatinine: 82.4 µmol/L
  LDH: Lactate dehydrogenase: 2.91 µmol/s/L
  TBIL: Total bilirubin: 11.53 µmol/L
  TCH: Total cholesterol: 11.04 mmol/L
Dog ♀6 (80 mg/kg/day oral), printed in d0 line
  TG: Triglycerides: 1.60 mmol/L
Dog ♀6 (80 mg/kg/day oral), printed in d42 line
  TCH: Total cholesterol: 0.31 mmol/L
[3]
  ALP: Alkaline phosphatase: 1.33 µmol/s/L
  ALT: Alanine aminotransferase: 428 nmol/s/L
  AST: Aspartate aminotransferase: 398 nmol/s/L
  BU: Blood urea: 4.08 mmol/L
  CPK: Creatine phosphokinase: 2.47 µmol/s/L
  CREA: Creatinine: 47.9 µmol/L
  LDH: Lactate dehydrogenase: 2.21 µmol/s/L
  TBIL: Total bilirubin: 2.18 µmol/L
  TCH: Total cholesterol: 5.85 mmol/L
[4]
  ALP: Alkaline phosphatase: 3.16 µmol/s/L
  ALT: Alanine aminotransferase: 852 nmol/s/L
  AST: Aspartate aminotransferase: 4924 nmol/s/L
  BU: Blood urea: 4.89 mmol/L
  CPK: Creatine phosphokinase: 6.39 µmol/s/L
  CREA: Creatinine: 37.8 µmol/L
  LDH: Lactate dehydrogenase: 2.06 µmol/s/L
  TBIL: Total bilirubin: 9.65 µmol/L
  TCH: Total cholesterol: 10.73 mmol/L
[5]
  ALP: Alkaline phosphatase: 1.47 ± 0.30 µmol/s/L
  ALT: Alanine aminotransferase: 559 ± 120 nmol/s/L
  AST: Aspartate aminotransferase: 463 ± 106 nmol/s/L
  BU: Blood urea: 4.03 ± 0.52 mmol/L
  CPK: Creatine phosphokinase: 2.94 ± 1.40 µmol/s/L
  CREA: Creatinine: 51.5 ± 9.3 µmol/L
  LDH: Lactate dehydrogenase: 3.08 ± 1.36 µmol/s/L
  TBIL: Total bilirubin: 2.34 ± 0.31 µmol/L
  TCH: Total cholesterol: 4.28 ± 0.36 mmol/L
  TG: Triglycerides: 0.43 ± 0.11 mmol/L
dogs, 5 mg/kg/day oral, d14
  ALP: Alkaline phosphatase: 1.45 ± 0.35 µmol/s/L
  ALT: Alanine aminotransferase: 521 ± 116 nmol/s/L
  AST: Aspartate aminotransferase: 442 ± 105 nmol/s/L
  BU: Blood urea: 4.10 ± 0.90 mmol/L
  CPK: Creatine phosphokinase: 2.63 ± 1.36 µmol/s/L
  CREA: Creatinine: 51.0 ± 9.9 µmol/L
  LDH: Lactate dehydrogenase: 2.27 ± 1.24 µmol/s/L
  TBIL: Total bilirubin: 2.01 ± 0.41 µmol/L
  TCH: Total cholesterol: 3.98 ± 0.64 mmol/L
  TG: Triglycerides: 0.39 ± 0.08 mmol/L
dogs, 5 mg/kg/day oral, d28
  ALP: Alkaline phosphatase: 1.51 ± 0.29 µmol/s/L
  ALT: Alanine aminotransferase: 593 ± 105 nmol/s/L
  AST: Aspartate aminotransferase: 424 ± 109 nmol/s/L
  BU: Blood urea: 3.82 ± 0.51 mmol/L
  CPK: Creatine phosphokinase: 2.43 ± 0.19 µmol/s/L
  CREA: Creatinine: 51.4 ± 10.9 µmol/L
  LDH: Lactate dehydrogenase: 2.71 ± 1.12 µmol/s/L
  TBIL: Total bilirubin: 2.08 ± 0.52 µmol/L
  TCH: Total cholesterol: 4.24 ± 0.56 mmol/L
  TG: Triglycerides: 0.35 ± 0.11 mmol/L
[6]
  ALP: Alkaline phosphatase: 1.45 ± 0.37 µmol/s/L
  ALT: Alanine aminotransferase: 558 ± 90 nmol/s/L
  AST: Aspartate aminotransferase: 451 ± 79 nmol/s/L
  BU: Blood urea: 4.83 ± 0.20 mmol/L
  CPK: Creatine phosphokinase: 2.97 ± 0.18 µmol/s/L
  CREA: Creatinine: 55.6 ± 4.5 µmol/L
  LDH: Lactate dehydrogenase: 2.21 ± 1.32 µmol/s/L
  TBIL: Total bilirubin: 2.01 ± 0.33 µmol/L
  TCH: Total cholesterol: 3.99 ± 0.41 mmol/L
  TG: Triglycerides: 0.31 ± 0.09 mmol/L
[7]
  ALP: Alkaline phosphatase: 1.48 ± 0.48 µmol/s/L
  ALT: Alanine aminotransferase: 535 ± 92 nmol/s/L
  AST: Aspartate aminotransferase: 456 ± 92 nmol/s/L
  BU: Blood urea: 4.35 ± 0.98 mmol/L
  CPK: Creatine phosphokinase: 2.98 ± 0.64 µmol/s/L
  CREA: Creatinine: 51.6 ± 7.5 µmol/L
  LDH: Lactate dehydrogenase: 2.85 ± 0.86 µmol/s/L
  TBIL: Total bilirubin: 2.55 ± 0.28 µmol/L
  TCH: Total cholesterol: 4.31 ± 0.36 mmol/L
  TG: Triglycerides: 0.42 ± 0.09 mmol/L
dogs, 20 mg/kg/day oral, d14
  ALP: Alkaline phosphatase: 0.85 ± 0.25 µmol/s/L
  ALT: Alanine aminotransferase: 425 ± 105 nmol/s/L
  AST: Aspartate aminotransferase: 384 ± 56 nmol/s/L
  BU: Blood urea: 4.52 ± 1.05 mmol/L
  CPK: Creatine phosphokinase: 2.43 ± 0.48 µmol/s/L
  CREA: Creatinine: 58.6 ± 10.6 µmol/L
  LDH: Lactate dehydrogenase: 1.23 ± 0.45 µmol/s/L
  TBIL: Total bilirubin: 1.85 ± 0.16 µmol/L
  TCH: Total cholesterol: 3.16 ± 0.34 mmol/L
  TG: Triglycerides: 0.29 ± 0.08 mmol/L
